According to patent publication US6867186B2, “Cell-permeable protein inhibitors of calpain” (New England Medical Center Hospital, priority 1997, dated 2005):
“Also recorded” adds a separate entry of the source. Read-outs that look alike come from different tables or passages of the source.

Assays:
μ-calpain = target: T1, μ-calpain (Sus scrofa, UniProt P35750); assay: Fluorometric calpain assay, suc-LLVY-AMC substrate; format: biochemical, porcine
T1 construct: pure p-calpain (porcine erythrocyte) was obtained from Chemicon; purchased Chemicon; host or cells: porcine erythrocyte
T1 sequence (P35750 1-714): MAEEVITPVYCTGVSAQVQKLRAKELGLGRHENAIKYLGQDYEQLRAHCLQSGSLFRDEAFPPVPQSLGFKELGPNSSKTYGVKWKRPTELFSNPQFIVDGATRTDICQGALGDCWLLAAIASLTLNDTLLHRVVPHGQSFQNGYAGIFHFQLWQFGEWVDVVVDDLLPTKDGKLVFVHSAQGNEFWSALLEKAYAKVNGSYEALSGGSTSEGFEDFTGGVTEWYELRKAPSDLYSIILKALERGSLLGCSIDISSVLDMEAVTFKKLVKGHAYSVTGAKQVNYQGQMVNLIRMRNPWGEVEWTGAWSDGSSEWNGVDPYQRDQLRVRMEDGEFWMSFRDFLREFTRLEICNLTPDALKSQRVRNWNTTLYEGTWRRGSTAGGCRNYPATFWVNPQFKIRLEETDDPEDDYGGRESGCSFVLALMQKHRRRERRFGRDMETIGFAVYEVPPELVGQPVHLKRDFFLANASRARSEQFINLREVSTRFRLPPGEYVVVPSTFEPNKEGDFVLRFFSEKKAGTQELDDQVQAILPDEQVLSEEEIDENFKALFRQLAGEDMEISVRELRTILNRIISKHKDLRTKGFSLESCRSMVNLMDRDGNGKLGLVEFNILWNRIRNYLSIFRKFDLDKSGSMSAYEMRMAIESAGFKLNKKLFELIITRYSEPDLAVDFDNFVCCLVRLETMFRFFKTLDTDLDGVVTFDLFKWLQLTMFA
T1 sequence (P04574 1-266 partner): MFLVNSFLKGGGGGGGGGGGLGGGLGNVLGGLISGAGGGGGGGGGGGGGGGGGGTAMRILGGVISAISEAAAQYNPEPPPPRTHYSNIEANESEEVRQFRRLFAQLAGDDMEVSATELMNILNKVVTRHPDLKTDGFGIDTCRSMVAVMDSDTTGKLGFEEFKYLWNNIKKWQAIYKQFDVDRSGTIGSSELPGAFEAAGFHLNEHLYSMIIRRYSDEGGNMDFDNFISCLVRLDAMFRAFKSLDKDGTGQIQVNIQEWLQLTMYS
Excerpt: Unless otherwise noted, the materials used in the studies described below were obtained from commercial suppliers. Sepharose 2B was obtained from Pharmacia Biotech (Upsala, Sweden); pure p-calpain (porcine erythrocyte) was obtained from Chemicon; succinyl-LLVY-AMC (SEQ ID NO:7) was obtained from Bachem; A23187 was obtained from LC Labs; human alpha-thrombin was obtained from Hematologic Technologies (Essex Junction, VT); anti-P-selectin antibodies conjugated to phycoerythrin were obtained from Becton Dickinson (San Jose, Calif.); Oregon Green-phalloidin was obtained from Molecular Probes (Eugene, Oreg.). All other chemicals were ACS grade or better and were obtained from Sigma Chemical Company (St. Louis, Mo.).
To assess the ability of calpastat to inhibit calpain activity, a fluorometric calpain assay was performed. The assay determined specific peptidyl hydrolysis of the peptidyl 7-amino bond of suc-LLVY-AMC (SEQ ID NO:7) by calpain.
The assay was performed in a 0.5 ml reaction volume at 37° C. The reaction buffer contained 50 mM KC1, 10 mM Tris-HCl (pH 7.5), 1 mM EDTA, and 1 mM DTT. Two hundred μM suc-LLVY-AMC (SEQ ID NO:7) was added along with 5 mM CaCl2. Calpastat or S-TIPPEY-ala was then added at the given concentrations (FIG. 9). […] The initial rate of AMC production was measured by fluorimetry for the first few minutes. […]

platelets = assay: cells; set-up: increase in P-selectin surface expression over unstimulated: dose or concentration left out as unconfirmed
Description: To determine whether S-TIPPEYIN could inhibit α-granule secretion in platelets, surface expression of P-selectin, which indicates α-granule secretion, was induced with the thrombin peptide SFLLR (SEQ ID NO:5) and analyzed by flow cytometry using an antibody against P-selectin. Blood from healthy volunteers was collected into sodium citrate (4% w/v) and centrifuged at 200×g for 10 minutes to prepare platelet-rich plasma (PRP), from which platelets were subsequently purified by gel filtration using a SEPHAROSE 2B column in PIPES buffer. Twenty μl of platelets (approximately 2×10^8 platelets/ml) were aliquoted into eppendorf tubes and one μl of S-TIPPEYIN, TIPPEYIN (lacking the signal peptide sequence), or S-TIPPEY-ala was added to achieve final concentrations of 6.25, 12.5, 25, 50, or 100 μM. The platelets were then incubated for 2 hours at 37° C. and subsequently exposed to either 1 μl PBS (unstimulated) or 1 μl of SFLLR (SEQ ID NO:5; stimulated) at the indicated concentration. After 30 seconds, a 7.5 μl aliquot was transferred to an eppendorf tube containing non-immune serum having antibodies that were conjugated to phycoerythrin. Following a 20 minute incubation at room temperature, the mixture was diluted with 1 ml of 2% paraformaldehyde and incubated at 4° C. for two hours. Antibody binding to platelet surface P-selectin was quantified using a FACSCAN flow cytometer (Becton Dickerson, San Jose, Calif.). Results were reported as the geometric mean of the relative fluorescence.
Platelets were pre-incubated with increasing concentrations of calpeptin, MDL, E64d, or DMSO (vehicle control) for ten minutes prior to stimulation with SFLLR.

In the case of “AAVALLPAVLLALLAPEKLAERADAAAPEAAELLEKKTGV [Calpastat-ala]”, the “inhibition of purified μ-calpain” value (μ-calpain; up to 10 μM, listed as S-TIPPEY-ala) is reported as “no inhibitory activity; also recorded: no inhibition” and the “effect on SFLLR-induced P-selectin surface expression” value (platelets; pre-incubation, SFLLR stimulation) is reported as “no effect”.

“H-AAVALLPAVLLALLAPEKLGERDDTIPPEYRELLEKKTGV-OH [Calpastat]” was tested, and the IC50 (μ-calpain; 70 nM enzyme, 37° C., read-out: IC50, μ-calpain cleavage of suc-LLVY-AMC) was 50 nM, the IC50 (platelets) was 30 µM and the “P-selectin surface expression induced by ionophore A23187” value (platelets; A23187) was “inhibited”. For the same substance, the “maximal inhibition of P-selectin surface expression” value (platelets; FIG. 3, SFLLR) was 40 to 60 µM, the “increase in P-selectin surface expression over unstimulated” value (platelets; SFLLR alone approximately 10-fold) was 5 fold and the IC50 (platelets; read-out: half-maximal inhibition of P-selectin surface expression, FIG. 3, SFLLR) was 15 to 20 µM.
